US12583866B2, “Pyrido[2,3-b][1,4]oxazines or tetrahydropyrido[2,3-b][1,4]oxazepines as IAP antagonists” (BEIGENE, LTD., priority 2020, dated 2026)

How the values were obtained:
[1] = molecular target: T1, recombinant human XIAP-BIR3 protein (Homo sapiens, UniProt P98170); assay: Recombinant human XIAP-BIR3 biochemical assay (HTRF, peptide displacement); conditions: 3.7 nM XIAP-BIR3, 7.6 nM AbuRPF-K(5-Fam)-NH2 peptide, read-out: Protein binding IC50 (nM) XIAP
T1 construct: recombinant human XIAP-BIR3 protein; purchased Reaction biology APT-11-374
Protocol: III. Recombinant Human XIAP-BIR3 Biochemical Assay
(§1) Compounds disclosed herein were tested for blocking of recombinant human XIAP-BIR3 protein (Cat: APT-11-374, Reaction biology) with its peptide in an assay based on Homogeneous Time Resolved Fluorescence. 3.7 nM recombinant human XIAP-BIR3 protein was pre-incubated with a serial dilution of compounds disclosed herein (maximum concentration is 10 uM, 4-fold serially diluted, 10 points) at room temperature for 1 hour in an assay buffer containing 20 mM HEPES, pH 7.5, 50 mM NaCl, 0.005% Tween-20, 1 mM DTT. Then 7.6 nM AbuRPF-K(5-Fam)-NH2 (Cat: 709702, GL Biochem) was added to plate incubated at room temperature for 1 hour. Mab Anti-6His Tb cryptate Gold (Cat: 61HI2TLB, Cisbio Bioassays) was added to plate and further incubated at room temperature for 1 hour. The HTRF signals (ex337 nm, em520 nm/490 nm) were read on BMG PHERAstar FS instrument. The inhibition percentage of XIAP-BIR3 interaction with its peptide in presence of increasing concentrations of compounds was calculated based on the ratio of fluorescence at 520 nm to that at 490 nm. The IC50 for each compound was derived from fitting the data to the four-parameter logistic equation by Dotmatics and summarized in table 1.

[2] = molecular target: T2, recombinant human cIAP1-BIR3 protein (Homo sapiens, UniProt Q13490); assay: Recombinant human c-IAP1-BIR3 biochemical assay (HTRF, peptide displacement); conditions: 1.2 nM cIAP1-BIR3, 3 nM AbuRPF-K(5-Fam)-NH2 peptide, read-out: Protein binding IC50 (nM) c-IAP1
T2 construct: recombinant human cIAP1-BIR3 protein; purchased Reaction biology APT-11-370
Protocol: I. Recombinant human c-IAP1-BIR3 biochemical assay
as §1, with “cIAP1-BIR3” for “XIAP-BIR3”, “APT-11-370,” for “APT-11-374,”, “1.2” for “3.7”, “3” for “7.6”, “AbuRPF-K (5-Fam)-NH2” for “AbuRPF-K(5-Fam)-NH2”

[3] = molecular target: T3, recombinant human cIAP2-BIR3 protein (Homo sapiens, UniProt Q13489); assay: Recombinant human c-IAP2-BIR3 biochemical assay (HTRF, peptide displacement); conditions: 3.7 nM cIAP2-BIR3, 3.7 nM AbuRPF-K(5-Fam)-NH2 peptide, read-out: Protein binding IC50 (nM) c-IAP2
T3 construct: recombinant human cIAP2-BIR3 protein; purchased Reaction biology APT-11-372
Protocol: II. Recombinant Human c-IAP2-BIR3 Biochemical Assay
as §1, with “cIAP2-BIR3” for “XIAP-BIR3”, “APT-11-372,” for “APT-11-374,”, “3.7” for “7.6”

T3 sequence (Q13489 238-349 limits assumed): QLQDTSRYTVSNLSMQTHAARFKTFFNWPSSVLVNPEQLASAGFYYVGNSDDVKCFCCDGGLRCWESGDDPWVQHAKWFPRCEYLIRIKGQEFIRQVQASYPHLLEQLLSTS
T1 sequence (P98170 241-356 limits assumed): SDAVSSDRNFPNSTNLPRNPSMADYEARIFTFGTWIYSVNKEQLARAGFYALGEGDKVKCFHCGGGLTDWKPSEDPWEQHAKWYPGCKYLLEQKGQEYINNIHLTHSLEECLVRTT
T2 sequence (Q13490 253-363 limits assumed): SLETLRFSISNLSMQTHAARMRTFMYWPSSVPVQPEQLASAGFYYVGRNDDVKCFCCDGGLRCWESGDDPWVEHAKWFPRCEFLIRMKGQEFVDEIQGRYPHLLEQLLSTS

Row | IC50 [1] [nM] | IC50 [2] [nM] | IC50 [3] [nM] | Structure (SMILES)
1 | 2.9 | 0.19 | 0.29 | CCS(=O)(=O)Nc1nc2c(cc1Cc1ccc(F)cc1)N(C(=O)CN1C[C@@H](C)NC[C@@H]1CN1[C@H](C)COC[C@H]1C)[C@@H](C)CO2 [Compound 122]
2 | 11.9 | 0.36 | 0.75 | C[C@@H]1CN(CC(=O)N2c3cc(Cc4ccc(F)cc4)c(NC4CC4)nc3OC[C@@H]2C)[C@@H](CN2[C@H](C)COC[C@H]2C)CN1 [Compound 110]
3 | 2.6 | 0.2 | 0.28 | C[C@@H]1CN(CC(=O)N2c3cc(Cc4ccc(F)cc4)c(C(=O)NCC4CCOCC4)nc3OC[C@@H]2C)[C@@H](CN2[C@H](C)COC[C@H]2C)CN1 [Example 77, (S)-1-(2-((2R,5R)-2-(((3R,5R)-3,5-dimethylmorpholino)methyl)-5-methylpiperazin-1-yl)acetyl)-7-(4-fluorobenzyl)-2-methyl-N-((tetrahydro-2H-pyran-4-yl)methyl)-2,3-dihydro-1H-pyrido[2,3-b][1,4]oxazine-6-carboxamide]
4 | 8.2 | 0.13 | 0.29 | C[C@@H]1CN(CC(=O)N2c3cc(Cc4ccc(F)cc4)c(C(=O)NCC4CCN(C)CC4)nc3OC[C@@H]2C)[C@@H](CN2[C@H](C)COC[C@H]2C)CN1 [Compound 98, (S)-1-(2-((2R,5R)-2-(((3R,5R)-3,5-dimethylmorpholino)methyl)-5-methylpiperazin-1-yl)acetyl)-7-(4-fluorobenzyl)-2-methyl-N-((1-methylpiperidin-4-yl)methyl)-2,3-dihydro-1H-pyrido[2,3-b][1,4]oxazine-6-carb oxamide]
5 | 543 | 47 | 108 | C[C@@H]1CN(CC(=O)N2c3cc(Cc4ccc(F)cc4)c(CO)nc3OC[C@@H]2C)[C@@H](CN2CCOC[C@@H]2C(F)(F)F)CN1 [Compound 91B, 1-((S)-7-(4-fluorobenzyl)-6-(hydroxymethyl)-2-methyl-2,3-dihydro-1H-pyrido[2,3-b][1,4]oxazin-1-yl)-2-((2R,5R)-5-methyl-2-(((R)-3-(trifluoromethyl)morpholino)methyl)piperazin-1-yl)ethan-1-one]
6 | 4.4 | 0.22 | 0.44 | CCNC(=O)c1nc2c(cc1Cc1ccc(F)cc1)N(C(=O)CN1C[C@@H](C)NC[C@@H]1CN1[C@H](C)COC[C@H]1C)[C@@H](C)CO2 [Example 65, (S)-1-(2-((2R,5R)-2-(((3R,5R)-3,5-dimethylmorpholino)methyl)-5-methylpiperazin-1-yl)acetyl)-N-ethyl-7-(4-fluorobenzyl)-2-methyl-2,3-dihydro-1H-pyrido[2,3-b][1,4]oxazine-6-carboxamide]
7 | 9.5 | 0.11 | 0.17 | COC[C@H]1COc2nc(CO)c(Cc3ccc(F)cc3)cc2N1C(=O)CN1C[C@@H](C)NC[C@@H]1CN1[C@H](C)COC[C@H]1C [Compound 58, 2-((2R,5R)-2-(((3R,5R)-3,5-dimethylmorpholino)methyl)-5-methylpiperazin-1-yl)-1-((S)-7-(4-fluorobenzyl)-6-(hydroxymethyl)-2-(methoxymethyl)-2,3-dihydro-1H-pyrido[2,3-b][1,4]oxazin-1-yl)ethan-1-one]
8 | 11 | 0.25 | 0.51 | C[C@@H]1CN(CC(=O)N2c3cc(Cc4ccc(F)cc4)c(C(=O)N4CC(O)C4)nc3OC[C@@H]2C)[C@@H](CN2[C@H](C)COC[C@H]2C)CN1 [Example 74, 2-((2R,5R)-2-(((3R,5R)-3,5-dimethylmorpholino)methyl)-5-methylpiperazin-1-yl)-1-((S)-7-(4-fluorobenzyl)-6-(3-hydroxyazetidine-1-carbonyl)-2-methyl-2,3-dihydro-1H-pyrido[2,3-b][1,4]oxazin-1-yl)ethan-1-one]

The remaining lines, values behind:

Row | Structure (SMILES) | IC50 [1] [nM] | IC50 [2] [nM] | IC50 [3] [nM]
9 | COC[C@H]1COc2ncc(Cc3ccc(F)cc3)cc2N1C(=O)CN1C[C@@H](C)NC[C@@H]1CN1[C@H](C)COC[C@H]1C [Compound 34, 2-((2R,5R)-2-(((3R,5R)-3,5-dimethylmorpholino)methyl)-5-methylpiperazin-1-yl)-1-((S)-7-(4-fluorobenzyl)-2-(methoxymethyl)-2,3-dihydro-1H-pyrido[2,3-b][1,4]oxazin-1-yl)ethan-1-one] | 23 | 0.25 | 0.32
10 | C[C@@H]1CN(CC(=O)N2c3cc(Cc4ccc(F)cc4)c(CO)nc3OC[C@@H]2C)[C@@H](CN2CCOCC2(C)C)CN1 [Compound 48] | 12 | 0.45 | 0.79
11 | C[C@@H]1CN(CC(=O)N2CCOc3ncc(Cc4ccc(F)cc4)cc32)[C@@H](CN2C(=O)OC[C@H]2C(F)F)CN1 [Compound 15, (S)-4-(difluoromethyl)-3-(((2R,5R)-1-(2-(7-(4-fluorobenzyl)-2,3-dihydro-1H-pyrido[2,3-b][1,4]oxazin-1-yl)-2-oxoethyl)-5-methylpiperazin-2-yl)methyl)oxazolidin-2-one] | 196 | 3.4 | 6.9
12 | CC(C)[C@H]1COc2ncc(Cc3ccc(F)cc3)cc2N1C(=O)CN1C[C@@H](C)NC[C@@H]1CN1[C@H](C)COC[C@H]1C [Compound 46, 2-((2R,5R)-2-(((3R,5R)-3,5-dimethylmorpholino)methyl)-5-methylpiperazin-1-yl)-1-((S)-7-(4-fluorobenzyl)-2-isopropyl-2,3-dihydro-1H-pyrido[2,3-b][1,4]oxazin-1-yl)ethan-1-one] | 63 | 0.24 | 0.47
13 | C[C@@H]1CN(CC(=O)N2CC(C)(C)Oc3nc(Br)c(Cc4ccc(F)cc4)cc32)[C@@H](CN2CCOC[C@H]2C)CN1 [Compound 12, 1-(6-bromo-7-(4-fluorobenzyl)-3,3-dimethyl-2,3-dihydro-1H-pyrido[2,3-b][1,4]oxazin-1-yl)-2-((2R,5R)-5-methyl-2-(((R)-3-methylmorpholino)methyl)piperazin-1-yl)ethan-1-one] | 561 | 16 | 44
14 | CC(C)[C@H]1COc2ncc(Cc3ccc(F)cc3)cc2N1C(=O)CN1C[C@@H](C)NC[C@@H]1CN1CCOC[C@H]1C [Compound 47, 1-((S)-7-(4-fluorobenzyl)-2-isopropyl-2,3-dihydro-1H-pyrido[2,3-b][1,4]oxazin-1-yl)-2-((2R,5R)-5-methyl-2-(((R)-3-methylmorpholino)methyl)piperazin-1-yl)ethan-1-one] | 84 | 0.57 | 1.43
15 | C[C@@H]1CN(CC(=O)N2c3cc(Cc4ccc(F)cc4)cnc3OC[C@@H]2C2CC2)[C@@H](CN2CCOC[C@H]2C)CN1 [Compound 26, 1-((S)-2-cyclopropyl-7-(4-fluorobenzyl)-2,3-dihydro-1H-pyrido[2,3-b][1,4]oxazin-1-yl)-2-((2R,5R)-5-methyl-2-(((R)-3-methylmorpholino)methyl)piperazin-1-yl)ethan-1-one] | 16 | 0.48 | 1.13
